Broadly, the Km is the substrate concentration at which the rate is half of its maximum. Broadly, the Vmax is the top rate of the reaction or transport when substrate is in excess.

In data set [1] the test system is COX formation in pooled HLMs. Conditions: 500 μM COT, vs control without inhibitor.
Data set [2] has as its target CYP2C19 (Homo sapiens, UniProt P33261). Particulars: UM2C19/EM2C19 genotype groups compared with PM2C19 genotype group; ref Li-Wan-Po et al., 2010; cited from earlier work.
Data set [3] concerns P450. Particulars: rat, in vivo; cited from earlier work.
Data set [4] has as its target T1, CYP2B6 (Homo sapiens, UniProt P20813).
T1 sequence (P20813 1-491): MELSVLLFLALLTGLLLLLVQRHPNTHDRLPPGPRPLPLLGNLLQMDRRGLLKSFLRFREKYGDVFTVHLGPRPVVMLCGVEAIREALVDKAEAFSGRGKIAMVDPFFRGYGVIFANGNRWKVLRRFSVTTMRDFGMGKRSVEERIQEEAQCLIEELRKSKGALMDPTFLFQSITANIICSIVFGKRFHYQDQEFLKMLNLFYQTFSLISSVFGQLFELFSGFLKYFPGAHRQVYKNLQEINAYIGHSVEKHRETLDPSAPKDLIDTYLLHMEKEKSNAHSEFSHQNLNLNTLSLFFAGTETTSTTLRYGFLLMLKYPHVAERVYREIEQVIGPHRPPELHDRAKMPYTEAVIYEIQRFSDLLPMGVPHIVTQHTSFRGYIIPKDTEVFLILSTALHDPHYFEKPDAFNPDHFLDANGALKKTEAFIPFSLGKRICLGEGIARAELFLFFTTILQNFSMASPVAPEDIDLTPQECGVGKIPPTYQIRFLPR
In kind it is in vitro ADME. Particulars: microsomes of HEK293 cells overexpressing CYP2B6.

The target in data set [5] is CYP2E1 (Homo sapiens, UniProt P05181). In kind it is in vitro ADME. Particulars: microsomes of HEK293 cells overexpressing CYP2E1.
CYP2E1, sequence (P05181 whole entry): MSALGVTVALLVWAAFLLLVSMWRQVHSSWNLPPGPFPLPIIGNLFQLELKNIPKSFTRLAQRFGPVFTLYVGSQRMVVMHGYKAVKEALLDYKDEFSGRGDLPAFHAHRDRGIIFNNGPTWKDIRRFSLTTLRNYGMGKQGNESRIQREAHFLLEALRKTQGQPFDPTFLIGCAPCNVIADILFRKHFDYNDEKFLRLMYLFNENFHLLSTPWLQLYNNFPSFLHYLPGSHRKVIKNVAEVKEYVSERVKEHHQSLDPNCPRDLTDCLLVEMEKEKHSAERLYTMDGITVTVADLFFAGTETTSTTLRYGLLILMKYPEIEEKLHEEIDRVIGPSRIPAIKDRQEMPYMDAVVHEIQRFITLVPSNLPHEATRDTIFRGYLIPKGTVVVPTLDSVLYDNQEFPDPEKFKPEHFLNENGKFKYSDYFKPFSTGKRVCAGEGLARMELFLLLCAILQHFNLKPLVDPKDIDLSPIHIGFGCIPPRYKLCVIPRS
In data set [6] the target is CYP3A4 (Homo sapiens, UniProt P08684). In kind it is in vitro ADME. Conditions: microsomes of HEK293 cells overexpressing CYP3A4.
CYP3A4, sequence (P08684 whole entry): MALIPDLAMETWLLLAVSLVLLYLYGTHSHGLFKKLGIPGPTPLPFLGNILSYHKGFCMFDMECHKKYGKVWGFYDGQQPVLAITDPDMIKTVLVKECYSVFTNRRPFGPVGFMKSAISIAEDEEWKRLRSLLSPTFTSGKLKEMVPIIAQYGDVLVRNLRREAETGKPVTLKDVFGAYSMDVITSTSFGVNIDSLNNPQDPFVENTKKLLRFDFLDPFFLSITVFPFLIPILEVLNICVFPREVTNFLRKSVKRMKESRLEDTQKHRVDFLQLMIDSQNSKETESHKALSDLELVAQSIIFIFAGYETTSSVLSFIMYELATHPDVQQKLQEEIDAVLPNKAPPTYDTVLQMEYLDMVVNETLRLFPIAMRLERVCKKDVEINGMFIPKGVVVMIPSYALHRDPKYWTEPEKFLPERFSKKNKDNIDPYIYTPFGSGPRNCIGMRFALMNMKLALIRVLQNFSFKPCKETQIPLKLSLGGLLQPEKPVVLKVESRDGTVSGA
Data set [7] in a line: Kinetic analysis of COX formation in pooled HLMs. Type of data set: in vitro ADME, human. Conditions: pooled HLMs from 20 individuals.
For data set [8] the following is noted: ref Jarvis et al., 1988; cited from earlier work.
The conditions of data set [9]: urine of Caucasian smokers; ref Rangiah et al., 2011; cited from earlier work.
The conditions of data set [10]: in smokers; no reference given; cited from earlier work.
The subject of data set [11] is CYP2B6. Conditions: formation of COT from nicotine, ref Yamanaka et al., 2005; cited from earlier work.
Data set [12] deals with CYP2A6. Particulars: formation of COT from nicotine, ref Yamanaka et al., 2005; cited from earlier work.

Where two headings read alike, the source gives them in different places.

CYP2C19, sequence (P33261 whole entry): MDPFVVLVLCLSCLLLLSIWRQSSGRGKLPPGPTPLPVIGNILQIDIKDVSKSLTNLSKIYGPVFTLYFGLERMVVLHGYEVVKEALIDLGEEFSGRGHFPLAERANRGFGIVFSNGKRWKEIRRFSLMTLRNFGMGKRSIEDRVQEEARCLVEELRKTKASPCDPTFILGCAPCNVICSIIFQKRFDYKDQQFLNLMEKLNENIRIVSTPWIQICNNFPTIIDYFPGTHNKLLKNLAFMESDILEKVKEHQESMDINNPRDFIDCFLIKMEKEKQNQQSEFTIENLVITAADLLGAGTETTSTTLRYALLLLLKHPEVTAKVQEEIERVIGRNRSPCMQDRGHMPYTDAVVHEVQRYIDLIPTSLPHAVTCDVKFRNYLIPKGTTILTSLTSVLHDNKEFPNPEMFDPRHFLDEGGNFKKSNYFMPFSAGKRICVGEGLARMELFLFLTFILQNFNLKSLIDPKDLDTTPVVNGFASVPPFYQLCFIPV

Consider `COC(=O)[C@H](c1ccccc1Cl)N1CCc2sccc2C1` [clopidogrel], for which the “decrease in COX formation” value in data set [1] (10 µM inhibitor) is 21%. Further, in data set [2], the increased enzyme efficacy was 35%–40%.
With `COc1ccc2[nH]c([S+]([O-])Cc3ncc(C)c(OC)c3C)nc2c1` (stereo not shown) [omeprazole], the increased enzyme efficacy in data set [2] was 35%–40%.
For `CCC1(c2ccccc2)C(=O)NC(=O)NC1=O` [phenobarbital], the “increase of COX production” value in data set [3] is on record as “eightfold”.
In the case of `CC(C)(C(=O)c1cccnc1)c1cccnc1` [metyrapone], in data set [3], the “effect on phenobarbital-induced increase of COX production” value was “negated”.
In the case of `CN1C(=O)CC[C@H]1c1cccnc1` [cotinine], the Km at 30 min in data set [4] is 810 ± 24 µM; in data set [5], greater than 10000 µM; in [6], greater than 10000 µM. Besides, the Km in [7] (COX formation from cotinine) was 550 ± 49 µM. The Vmax in [7] (COX formation) came to 587 ± 26 pmol/min/mg. Besides, the “half-life of elimination from plasma” value in data set [8] is 10 to 27 h.
As for `N[C@@H]1C[C@H]1c1ccccc1` (racemic) [tranylcypromine], the “decrease in COX formation” value in data set [1] (1 µM inhibitor) was 15%.
Regarding `O=C1CCC(c2cccnc2)N1CO` (stereo not shown) [N-(hydroxyl-methyl) norcotinine], the “average share of cotinine metabolites in urine” value in data set [9] is 4%.
As to `CN1CCC[C@H]1c1cccnc1` [nicotine], the “share of metabolism via formation of cotinine by CYP2A6” value in data set [10] is roughly 70%. Also, the Km in data set [11] was 550 µM; in data set [12] it was 95 µM.

The values above are taken from article PMC9832378 (Drug Metabolism and Disposition, 2023).
